Test results: patent US20090298897A1, “Treatment of Inflammatory Disorders With Triazole Compounds” (priority 2006, published 2009)
Where “and” joins values, the source holds several entries; their conditions need not be identical. Equal entries are not always repeated.

Assays:
IL-1α = test: Expression of IL-1α, rambazole compared to retinoic acid (FIG. 2); type: in vivo, human
Excerpt: Also unexpectedly, rambazole-treated lesions (such as, for example, psoriatic lesions) continue to improve and show reduced inflammatory patterns for at least 3 months after discontinuation of treatment. Further, in contrast with retinoids such as isotretinoin, rambazole-treated inflammatory lesions responded rapidly within the first 4 weeks of treatment. This finding supports an antiinflammatory action for rambazole in addition to the typical effects on proliferation and differentiation.

[1] = system: moderate to severe facial acne vulgaris; test: Treatment of acne vulgaris with oral rambazole (lesion counts); type: in vivo, human; settings: for Table 3 (untitled, lesion count), Max. / Table 3 (untitled, lesion count), Mean / Table 3 (untitled, lesion count), Median / Table 3 (untitled, lesion count), Min. / Table 6 (untitled, summary of Table 5 lesion count), Max. / Table 6 (untitled, summary of Table 5 lesion count), Mean / Table 6 (untitled, summary of Table 5 lesion count), Median / Table 6 (untitled, summary of Table 5 lesion count), Min. / Table 4 (untitled, change of Table 3 count versus Visit 2), Max. / Table 4 (untitled, change of Table 3 count versus Visit 2), Mean / Table 4 (untitled, change of Table 3 count versus Visit 2), Median / Table 4 (untitled, change of Table 3 count versus Visit 2), Min. / Table 7 (untitled, change of Table 6 count versus Visit 2), Max. / Table 7 (untitled, change of Table 6 count versus Visit 2), Mean / Table 7 (untitled, change of Table 6 count versus Visit 2), Median / Table 7 (untitled, change of Table 6 count versus Visit 2), Min.: N 16; for Table 5 (untitled, lesion count per subject): individual subjects
Protocol: Sixteen patients with moderate to severe facial acne vulgaris received a daily oral dose of 1 mg of rambazole for 12 weeks. […] The average lesion reduction was 79%. See Tables 3 through 7 for additional individual data. See FIGS. 5 and 6, respectively, for a comparison of the response to treatment of inflammatory lesions versus non-inflammatory lesions.

## CCC(CC)C(c1ccc(Nc2nc3ccccc3s2)cc1)n1cncn1 (stereo not shown) [rambazole]
IL-1α
  expression of IL-1: decrease the expression of IL-1
[1]; 1 mg oral daily for 12 weeks
  serious adverse effects: No serious adverse effects were reported
[1]; Visit No. 2
  Table 3 (untitled, lesion count), Max.: 170
  Table 3 (untitled, lesion count), Mean: 56.2
  Table 3 (untitled, lesion count), Median: 48.0
  Table 3 (untitled, lesion count), Min.: 15
  Table 6 (untitled, summary of Table 5 lesion count), Max.: 199
  Table 6 (untitled, summary of Table 5 lesion count), Mean: 81.3
  Table 6 (untitled, summary of Table 5 lesion count), Median: 87.0
  Table 6 (untitled, summary of Table 5 lesion count), Min.: 22
  Table 5 (untitled, lesion count per subject): 22 and 46 and 63 and 25 and 23 and 93 (2×) and 72 and 49 and 89 and 110 and 199 and 121 and 95 and 115 and 85
[1]; Visit No. 4
  Table 3 (untitled, lesion count), Max.: 77
  Table 3 (untitled, lesion count), Mean: 34.4
  Table 3 (untitled, lesion count), Median: 34.5
  Table 3 (untitled, lesion count), Min.: 3
  Table 4 (untitled, change of Table 3 count versus Visit 2), Max.: 15
  Table 4 (untitled, change of Table 3 count versus Visit 2), Mean: −21.8
  Table 4 (untitled, change of Table 3 count versus Visit 2), Median: −10.0
  Table 4 (untitled, change of Table 3 count versus Visit 2), Min.: −159
  Table 6 (untitled, summary of Table 5 lesion count), Max.: 122
  Table 6 (untitled, summary of Table 5 lesion count), Mean: 51.4
  Table 6 (untitled, summary of Table 5 lesion count), Median: 49.5
  Table 6 (untitled, summary of Table 5 lesion count), Min.: 3
  Table 7 (untitled, change of Table 6 count versus Visit 2), Max.: 10
  Table 7 (untitled, change of Table 6 count versus Visit 2), Mean: −29.9
  Table 7 (untitled, change of Table 6 count versus Visit 2), Median: −17.5
  Table 7 (untitled, change of Table 6 count versus Visit 2), Min.: −159
  Table 5 (untitled, lesion count per subject): 11 and 3 and 12 and 30 and 21 and 71 and 58 and 59 and 80 and 45 and 89 and 40 and 48 and 82 and 122 and 51
[1]; Visit No. 5
  Table 3 (untitled, lesion count), Max.: 94
  Table 3 (untitled, lesion count), Mean: 26.4
  Table 3 (untitled, lesion count), Median: 27.0
  Table 3 (untitled, lesion count), Min.: 1
  Table 4 (untitled, change of Table 3 count versus Visit 2), Max.: 19
  Table 4 (untitled, change of Table 3 count versus Visit 2), Mean: −29.8
  Table 4 (untitled, change of Table 3 count versus Visit 2), Median: −22.0
  Table 4 (untitled, change of Table 3 count versus Visit 2), Min.: −142
  Table 6 (untitled, summary of Table 5 lesion count), Max.: 146
  Table 6 (untitled, summary of Table 5 lesion count), Mean: 39.5
  Table 6 (untitled, summary of Table 5 lesion count), Median: 40.5
  Table 6 (untitled, summary of Table 5 lesion count), Min.: 1
  Table 7 (untitled, change of Table 6 count versus Visit 2), Max.: 31
  Table 7 (untitled, change of Table 6 count versus Visit 2), Mean: −41.8
  Table 7 (untitled, change of Table 6 count versus Visit 2), Median: −45.0
  Table 7 (untitled, change of Table 6 count versus Visit 2), Min.: −140
  Table 5 (untitled, lesion count per subject): 9 and 1 and 4 (2×) and 2 (2×) and 48 and 64 and 42 and 39 and 33 and 80 and 59 and 55 and 44 and 146
[1]; Visit No. 6
  Table 3 (untitled, lesion count), Max.: 37
  Table 3 (untitled, lesion count), Mean: 12.8
  Table 3 (untitled, lesion count), Median: 13.5
  Table 3 (untitled, lesion count), Min.: 0
  Table 4 (untitled, change of Table 3 count versus Visit 2), Max.: −12
  Table 4 (untitled, change of Table 3 count versus Visit 2), Mean: −43.4
  Table 4 (untitled, change of Table 3 count versus Visit 2), Median: −34.0
